Tests used:
ADP-HSP70 D506A = molecular target: T1, ADP-HSP70 D506A (Homo sapiens, UniProt P0DMV8, D506A/E110D); test: ITC, mutated full-length ADP-HSP70; format: binding; conditions: ADP-HSP70 mutant D506A
T1 construct: The full-length HSP70 and DnaK mutants were constructed by PCR-based site-directed mutagenesis; His6 (N); made in house; host or cells: E. coli BL21 Star (DE3)
Excerpt: (§1) The human stress-inducible HSP70 (residues 1-641 or 386-616 of SEQ ID NO: 2) and E. coli DnaK (residues 1-638, 389-607, or 393-507 of SEQ ID NO: 4) were cloned into the pET25 vector (EMD Millipore Chemicals, Inc., Billerica, Mass., USA) between the NdeI and XhoI restriction sites. The full-length HSP70 and DnaK mutants were constructed by PCR-based site-directed mutagenesis using the QuikChange™ Site-Directed Mutagenesis Kit (Agilent Technologies, Inc., Santa Clara, Calif., USA). All plasmid inserts were verified by DNA sequencing. All HSP70 and DnaK variants were produced with a N-terminal His6-tag in the E. coli BL21 Star (DE3) strain (Invitrogen catalog number C6010-03). The resulting strains were grown at 37° C. in LB medium containing 50 μg/mL of carbenicillin (Sigma-Aldrich Co., St. Louis, Mo., USA). At an OD600 about 0.3 to about 0.5, protein expression was induced with 0.5 mM isopropyl-β-D-thiogalactopyranoside (IPTG), and cells were subsequently grown at 25° C. for about 16 h. Cells were collected by centrifugation and resuspended in the Bugbuster® Master Mix (EMD Millipore Chemicals catalog number 71456-4), supplemented with protease inhibitors, 1 mM diethiothreitol (DTT) and 20 mM imidazole. The His6-tagged fusion proteins were isolated on Ni^2+-chelating resins (Ni-NTA Superflow, Qiagen catalog number 30410) by standard procedures. When necessary, size-exclusion chromatography on a Superdex® 200 or a Superose® 6 10/300 GL columns (GE Healthcare) analytical column pre-equilibrated with 1× Dulbecco's Phosphate Buffered Saline (DPBS—Invitrogen 14190-136), 1 mM Tris-HCl (pH 7.4) or 10 mM Tris-HCl (pH 7) was used as the final purification step. The purified DnaK proteins were dialyzed thoroughly against 1× DPBS with 5 mM DTT at 4° C., for crystallization trials involving the small molecule inhibitor PET-16. For isothermal titration calorimetry studies, all HSP70 and DnaK variants were dialyzed extensively against the buffers as noted below under the section entitled “Isothermal Titration calorimetry Studies”. The dialyzed proteins were subsequently microcentrifugated at 15,000×g for 5 min at 4° C. and aliquots of the soluble proteins were stored at −80° C.
(§2) All ITC experiments were performed using a MicroCal VP-ITC isothermal titration calorimeter (MicroCal). Both full-length HSP70 and DnaK proteins and DnaK (aa 393-507) proteins were prepared in 1 mM Tris-HCl (pH 7.4) buffer containing 3% dimethylsulfoxide (DMSO). The HSP70 (aa 386-616) protein was prepared in buffer containing 3% DMSO and 10 mM Tris-HCl, pH 7. The syringe was loaded with purified protein in either 1 mM Tris-HCl (pH 7.4) buffer containing 3% DMSO or 10 mM Tris-HCl (pH 7) buffer containing 3% DMSO. The sample cell of the calorimeter was loaded with PES, PET-16 or NRLLLTG (SEQ ID NO: 7) prepared in the same buffer. All solutions were degassed for 5 min.
(§3) The titrations involving the full-length purified proteins were performed at 25° C. with injection volumes of 12 μL and a spacing of 300 s. The titrations involving the purified HSP70 (aa 386-616) and DnaK (aa 393-507) were performed at 42° C. with injection volumes of 12 μL and a spacing of 300 s. Heat from the pre-injection was not used during fitting. The data were fit using a one-site binding model available in the Origin® ITC data analysis software (MicroCal Origin® V5.0, MicroCal Software, Northampton, Mass.). Error values obtained from the MicroCal Origin® V5.0 software were averaged and reported.
(§4) The information from crystal structure analysis pointed to particular amino acid residues as potential contact sites for interaction with PET-16. Single point mutants were thereby introduced in the context of a full-length DnaK protein, as well as at the corresponding residues within HSP70; these mutant proteins were analyzed by ITC for ability to bind to PET-16. The DnaK mutations included residues L392D, P396L, L399R, G482D, A503D and […]; those in HSP70 were L394D, P398L, L401R, G484D, N505D and D506A. […]

ADP-HSP70 G484D = molecular target: T2, ADP-HSP70 G484D (Homo sapiens, UniProt P0DMV8, E110D/G484D); test: ITC, mutated full-length ADP-HSP70; format: binding; conditions: ADP-HSP70 mutant G484D
T2 construct: The full-length HSP70 and DnaK mutants were constructed by PCR-based site-directed mutagenesis; His6 (N); made in house; host or cells: E. coli BL21 Star (DE3)
Excerpt: as §1, §2, §3, §4

ADP-HSP70 L394D = molecular target: T3, ADP-HSP70 L394D (Homo sapiens, UniProt P0DMV8, E110D/L394D); test: ITC, mutated full-length ADP-HSP70; format: binding; conditions: ADP-HSP70 mutant L394D
T3 construct: The full-length HSP70 and DnaK mutants were constructed by PCR-based site-directed mutagenesis; His6 (N); made in house; host or cells: E. coli BL21 Star (DE3)
Excerpt: as §1, §2, §3, §4

ADP-HSP70 L401R = molecular target: T4, ADP-HSP70 L401R (Homo sapiens, UniProt P0DMV8, E110D/L401R); test: ITC, mutated full-length ADP-HSP70; format: binding; conditions: ADP-HSP70 mutant L401R
T4 construct: The full-length HSP70 and DnaK mutants were constructed by PCR-based site-directed mutagenesis; His6 (N); made in house; host or cells: E. coli BL21 Star (DE3)
Excerpt: as §1, §2, §3, §4

ADP-HSP70 N505D = molecular target: T5, ADP-HSP70 N505D (Homo sapiens, UniProt P0DMV8, E110D/N505D); test: ITC, mutated full-length ADP-HSP70; format: binding; conditions: ADP-HSP70 mutant N505D
T5 construct: The full-length HSP70 and DnaK mutants were constructed by PCR-based site-directed mutagenesis; His6 (N); made in house; host or cells: E. coli BL21 Star (DE3)
Excerpt: as §1, §2, §3, §4

ADP-HSP70 P398L = molecular target: T6, ADP-HSP70 P398L (Homo sapiens, UniProt P0DMV8, E110D/P398L); test: ITC, mutated full-length ADP-HSP70; format: binding; conditions: ADP-HSP70 mutant P398L
T6 construct: The full-length HSP70 and DnaK mutants were constructed by PCR-based site-directed mutagenesis; His6 (N); made in house; host or cells: E. coli BL21 Star (DE3)
Excerpt: as §1, §2, §3, §4

[1] = test system: mouse melanoma cell line Yumm 1.7; test: In vivo melanoma model, Yumm 1.7; conditions: single agent, C57BL/6 mice
Experimental: FIGS. 14A and 14B provide evidence that PET-16 impairs melanoma growth in vivo as a single agent. A well-recognized pulmonary metastatic model was utilized in which immunocompetent, wild-type C57BL/6 mice were injected with the metastatic mouse melanoma cell line Yumm 1.7, as indicated. […] FIG. 14A is a summary of the steps entailed in the model.

T6 sequence (P0DMV8 whole entry E110D/P398L): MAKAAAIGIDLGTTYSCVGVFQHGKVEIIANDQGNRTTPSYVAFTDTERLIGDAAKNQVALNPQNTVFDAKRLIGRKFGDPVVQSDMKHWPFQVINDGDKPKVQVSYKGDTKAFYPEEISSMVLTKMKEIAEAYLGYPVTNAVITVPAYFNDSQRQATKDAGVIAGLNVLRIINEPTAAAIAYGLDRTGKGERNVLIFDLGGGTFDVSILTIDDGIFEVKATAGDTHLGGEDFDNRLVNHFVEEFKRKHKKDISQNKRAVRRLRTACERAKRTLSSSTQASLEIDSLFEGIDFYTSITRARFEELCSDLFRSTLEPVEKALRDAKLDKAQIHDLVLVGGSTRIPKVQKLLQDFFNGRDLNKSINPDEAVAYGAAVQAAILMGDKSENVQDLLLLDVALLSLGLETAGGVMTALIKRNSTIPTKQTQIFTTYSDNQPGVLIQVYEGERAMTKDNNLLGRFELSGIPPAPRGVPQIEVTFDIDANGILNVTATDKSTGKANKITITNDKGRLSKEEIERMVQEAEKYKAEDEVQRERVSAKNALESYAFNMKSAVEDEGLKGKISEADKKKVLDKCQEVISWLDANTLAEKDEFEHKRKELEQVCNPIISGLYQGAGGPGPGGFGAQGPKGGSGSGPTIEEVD
T1 sequence (P0DMV8 whole entry E110D/D506A): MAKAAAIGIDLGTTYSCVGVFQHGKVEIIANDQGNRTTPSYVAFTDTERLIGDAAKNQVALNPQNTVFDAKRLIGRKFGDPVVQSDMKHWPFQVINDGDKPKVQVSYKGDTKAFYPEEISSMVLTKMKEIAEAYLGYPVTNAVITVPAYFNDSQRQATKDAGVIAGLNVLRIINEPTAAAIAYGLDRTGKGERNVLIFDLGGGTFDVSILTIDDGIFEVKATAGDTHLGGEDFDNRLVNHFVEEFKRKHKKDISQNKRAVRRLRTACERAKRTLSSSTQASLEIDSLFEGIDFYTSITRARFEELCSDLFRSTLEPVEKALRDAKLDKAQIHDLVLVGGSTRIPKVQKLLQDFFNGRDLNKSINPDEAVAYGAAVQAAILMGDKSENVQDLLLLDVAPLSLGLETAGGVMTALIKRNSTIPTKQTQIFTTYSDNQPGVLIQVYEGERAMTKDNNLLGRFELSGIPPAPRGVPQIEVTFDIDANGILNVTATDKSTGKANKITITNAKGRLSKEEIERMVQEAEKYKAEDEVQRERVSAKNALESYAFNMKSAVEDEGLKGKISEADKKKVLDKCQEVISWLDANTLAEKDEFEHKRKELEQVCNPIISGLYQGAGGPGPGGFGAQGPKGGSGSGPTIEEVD
T5 sequence (P0DMV8 whole entry E110D/N505D): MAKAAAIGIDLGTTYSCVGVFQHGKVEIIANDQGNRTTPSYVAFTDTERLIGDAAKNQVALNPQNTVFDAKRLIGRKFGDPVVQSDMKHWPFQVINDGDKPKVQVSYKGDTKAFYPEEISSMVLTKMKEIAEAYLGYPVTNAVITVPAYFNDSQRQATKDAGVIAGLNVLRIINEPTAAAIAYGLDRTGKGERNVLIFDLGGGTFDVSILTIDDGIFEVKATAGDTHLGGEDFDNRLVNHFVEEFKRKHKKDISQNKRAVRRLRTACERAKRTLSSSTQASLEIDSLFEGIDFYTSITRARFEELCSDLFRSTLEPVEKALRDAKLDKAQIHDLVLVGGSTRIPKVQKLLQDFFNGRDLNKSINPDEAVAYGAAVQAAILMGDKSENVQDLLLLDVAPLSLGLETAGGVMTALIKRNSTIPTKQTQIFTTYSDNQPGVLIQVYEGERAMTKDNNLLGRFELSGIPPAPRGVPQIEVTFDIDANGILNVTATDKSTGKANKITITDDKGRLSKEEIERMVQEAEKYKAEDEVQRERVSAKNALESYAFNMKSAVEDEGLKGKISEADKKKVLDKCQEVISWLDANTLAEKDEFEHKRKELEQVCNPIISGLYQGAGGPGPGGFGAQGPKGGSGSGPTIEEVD
T2 sequence (P0DMV8 whole entry E110D/G484D): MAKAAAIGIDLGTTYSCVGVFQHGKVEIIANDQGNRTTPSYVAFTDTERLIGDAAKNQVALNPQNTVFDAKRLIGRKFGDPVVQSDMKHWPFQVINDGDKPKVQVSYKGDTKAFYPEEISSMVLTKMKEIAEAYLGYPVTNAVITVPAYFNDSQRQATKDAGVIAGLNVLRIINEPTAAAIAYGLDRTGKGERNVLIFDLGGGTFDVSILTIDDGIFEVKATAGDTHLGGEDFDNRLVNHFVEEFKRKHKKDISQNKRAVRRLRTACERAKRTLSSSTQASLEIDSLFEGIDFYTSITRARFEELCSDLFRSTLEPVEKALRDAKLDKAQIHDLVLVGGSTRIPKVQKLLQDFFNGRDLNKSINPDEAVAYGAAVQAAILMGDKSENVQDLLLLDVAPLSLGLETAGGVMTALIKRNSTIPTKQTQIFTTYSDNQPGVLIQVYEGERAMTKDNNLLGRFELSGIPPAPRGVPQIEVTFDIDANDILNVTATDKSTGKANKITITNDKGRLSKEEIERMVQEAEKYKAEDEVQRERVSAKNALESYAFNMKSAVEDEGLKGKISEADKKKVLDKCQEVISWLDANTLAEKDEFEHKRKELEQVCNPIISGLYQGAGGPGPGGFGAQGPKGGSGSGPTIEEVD
T4 sequence (P0DMV8 whole entry E110D/L401R): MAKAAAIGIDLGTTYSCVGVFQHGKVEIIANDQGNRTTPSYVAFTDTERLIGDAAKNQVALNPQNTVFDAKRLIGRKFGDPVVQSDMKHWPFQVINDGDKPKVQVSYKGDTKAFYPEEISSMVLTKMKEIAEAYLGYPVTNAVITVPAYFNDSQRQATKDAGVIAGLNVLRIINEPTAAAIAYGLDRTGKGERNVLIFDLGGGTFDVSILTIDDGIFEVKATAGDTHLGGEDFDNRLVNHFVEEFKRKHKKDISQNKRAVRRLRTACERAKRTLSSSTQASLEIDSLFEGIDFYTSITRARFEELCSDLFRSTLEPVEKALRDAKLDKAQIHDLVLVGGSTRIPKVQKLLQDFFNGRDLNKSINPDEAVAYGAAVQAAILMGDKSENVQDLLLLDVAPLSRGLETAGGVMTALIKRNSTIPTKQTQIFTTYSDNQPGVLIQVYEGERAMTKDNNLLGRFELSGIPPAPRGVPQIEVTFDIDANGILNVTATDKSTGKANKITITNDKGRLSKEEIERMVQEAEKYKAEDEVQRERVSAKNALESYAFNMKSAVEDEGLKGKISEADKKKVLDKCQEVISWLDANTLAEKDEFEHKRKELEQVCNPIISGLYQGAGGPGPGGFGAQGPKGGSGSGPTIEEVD
T3 sequence (P0DMV8 whole entry E110D/L394D): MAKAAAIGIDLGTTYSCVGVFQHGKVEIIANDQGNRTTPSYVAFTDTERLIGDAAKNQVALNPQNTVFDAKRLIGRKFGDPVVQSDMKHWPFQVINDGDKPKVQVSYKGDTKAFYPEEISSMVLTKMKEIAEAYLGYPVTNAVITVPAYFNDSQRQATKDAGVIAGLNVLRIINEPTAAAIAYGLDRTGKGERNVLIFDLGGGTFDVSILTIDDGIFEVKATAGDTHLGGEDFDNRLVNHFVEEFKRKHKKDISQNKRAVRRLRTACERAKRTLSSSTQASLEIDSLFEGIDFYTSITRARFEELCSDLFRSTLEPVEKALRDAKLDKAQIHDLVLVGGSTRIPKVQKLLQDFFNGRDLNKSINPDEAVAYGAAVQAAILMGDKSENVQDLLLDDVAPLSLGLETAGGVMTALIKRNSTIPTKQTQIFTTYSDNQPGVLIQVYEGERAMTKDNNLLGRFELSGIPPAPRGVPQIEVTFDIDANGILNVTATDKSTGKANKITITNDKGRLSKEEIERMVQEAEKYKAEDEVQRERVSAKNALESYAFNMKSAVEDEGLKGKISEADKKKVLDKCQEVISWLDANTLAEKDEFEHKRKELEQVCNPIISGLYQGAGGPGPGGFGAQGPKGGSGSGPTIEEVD

With `C(#C[P+](c1ccccc1)(c1ccccc1)c1ccccc1)c1ccccc1.[Br-]` [PET-16, triphenyl(phenylethynyl)phosphonium bromide] as the molecule, how does the Kd (ADP-HSP70 D506A) read?
The Kd was 112 ± 3.8 µM.

And the Kd (ADP-HSP70 G484D)?
The Kd was 98.8 ± 5.1 µM.

And the Kd (ADP-HSP70 L394D)?
The Kd was 30.8 ± 0.6 µM.

What about the Kd (ADP-HSP70 L401R) of the same molecule?
The Kd was 43.2 ± 9.9 µM.

What about the Kd (ADP-HSP70 N505D) of the same molecule?
Its Kd is 147 ± 6.5 µM.

And the Kd (ADP-HSP70 P398L)?
The Kd was 23.4 ± 1.2 µM.

What about the “melanoma growth in vivo” value [1] of the same molecule?
The value was “inhibits melanoma xenograft growth”.

— patent US10010560B2, “Small molecule HSP70 inhibitors” (THE TRUSTEES OF THE UNIVERSITY OF PENNSYLVANIA, priority 2014, dated 2018)
